Reference: patent US9925398B2, “Angiogenic peptide” (NOVACELL TECHNOLOGY INC., priority 2008, dated 2018)

Legend:
[1] = tested on: HUVECs; assay: Tube formation assay on Matrigel; format: cell-based, human; details: 24 h
Protocol: As described previously in M. S. Lee, et al., J Immunol 177 (2006), pp. 5585-5594, HUVECs were seeded on a layer of previously polymerized Matrigel with SFKLRY-NH2 (SEQ ID NO: 2), its scrambled sequence FYSRLK-NH2, S1P or VEGF in the presence or absence of VEGF neutralizing antibody. After 24 h of incubation, changes in cell morphology were observed through a phase-contrast microscope and photographed. To measure the formation of the capillary network, the total tube length per field was measured at 40× magnification with the scale. Three different fields were analyzed per well.
FIGS. 2A-2C show SFKLRY-NH2 (SEQ ID NO: 2) induces proliferation, migration, and tube formation in HUVECs. (A) The effect of SFKLRY-NH2 on proliferation of HUVECs. […] After 48 h of incubation, the activity of DNA synthesis was counted with a liquid scintillation counter. […] After wounding, HUVECs were incubated with indicated concentration of SFKLRY-NH2 (SEQ ID NO: 2) (0.1-10 μM) for 16 h and then migrated HUVECs beyond the reference line were counted. […] After incubation for 24 h, the tubular-like structures were photographed and the length of tube formation was measured. […]
FIGS. 6A-6B show anti-VEGF antibody suppress SFKLRY-NH2 (SEQ ID NO: 2)-induced tube formation in HUVECs. […] After incubation for 24 h, the tubular-like structures were photographed and the length of tube formation was measured. […]

[2] = tested on: Rat aortic explants; assay: Aortic ring assay (vessel sprouting ex vivo); format: cell-based; details: 1 μM; 7 days
Protocol: The method developed by Nicosia and Ottinetti in In Vitro Cell Dev Biol 26 (1990), pp. 119-128 was used with some modifications. Aortas were harvested from 6-week-old Sprague-Dawley rats. After removing the surrounding fibro-adipose tissues, the rings were immersed in Matrigel in wells within culture dishes. The aortic rings were cultured (5% CO2, 37° C.) in serum-free M199 containing SFKLRY-NH2 (SEQ ID NO: 2), S1P, FYSRLK-NH2, or VEGF in the presence or absence of PTX or U73122. On day 7, sprouting from aortic explants was measured.
To address whether SFKLRY-NH2 (SEQ ID NO: 2) plays a role in sprouting of vascular endothelial cells ex vivo, aortic rings were analyzed in the presence of various stimuli including 1 μM SFKLRY-NH2 (SEQ ID NO: 2), 10 ng/mL VEGF, 10 nM S1P, and 10% FBS. […] Rat aortic explants in Matrigel were incubated with M-199 harboring SFKLRY-NH2 (SEQ ID NO: 2) (1 μM), FYSRLK-NH2 (1 μM), S1P (10 nM), VEGF (10 ng/mL), SFKLRY-NH2 (SEQ ID NO: 2) (1 μM) with U73122 (10 μM) or PTX (50 ng/mL), or 10% FBS and photographed after incubation for 7 days. Three independent experiments were then conducted, each in duplicate.

[3] = tested on: HUVECs; assay: [Ca2+]i increase in HUVECs; format: cell-based, human; details: 10 μM
Protocol: Cells were incubated with 4 μM Fura-2 AM and 250 μM sulfinpyrazone in serum-free DMEM medium at 37° C. for 30 min with continuous stirring. The cells were then washed with Locke's solution (M. Faehling, et al., FASEB J 16 (2002), pp. 1805-1807) and diluted to 2×10^6 cells/mL. 50 μL aliquots of cell suspension were added to each well of a 96-well plate, and the change in fluorescence ratio was determined at dual excitation wavelengths of 340 and 380 nm and emission wavelength of 500 nm following addition of peptides. Plates were read immediately following the addition of peptide pools, resulting in a time delay of approximately 5 s between peptide addition and detection by the FLEXstation (Molecular Devices). Negative and positive controls were run simultaneously with test samples to ensure that all samples were subjected to identical conditions. The calibration of the fluorescence ratio in terms of [Ca^2+]i was performed according to Grynkiewicz et al. J Biol Chem 260 (1985), pp. 3440-3450.
To verify that SFKLRY-NH2 (SEQ ID NO: 2) induces [Ca^2+]i increase in human endothelial cells, intracellular Ca^2+ mobilization in primary cultured human umbilical vein endothelial cells (HUVECs) were measured. Treatment with SFKLRY-NH2 (SEQ ID NO: 2) induced [Ca^2+]i increase in HUVECs with the half-maximal effect at 1.4±0.15 μM. […]

Row | Compound | Tube-forming activity (length of tube formation) ([1]; 100 nM) | vessel sprouting activity (outgrowth of endothelial cells) [2] | Tube-forming activity (length of tube formation) ([1]; 10 μM) | Ca2+ mobilization [3]
1 | CCCCCCCCCCCCC/C=C/[C@@H](O)[C@@H](N)COP(=O)(O)O [S1P, sphingosine-1-phosphate] | 19.69±0.32 |  |  | 
2 | FYSRLK-NH2 |  | negligible activity | 8.96±1.14 | did not trigger Ca^2+ mobilization
